{
  "source": "patent US10118928B2",
  "about": "“Treatment of H. pylori infections using MTAN inhibitors” (ALBERT EINSTEIN COLLEGE OF MEDICINE, INC., priority 2014, dated 2018)",
  "key": {"[1]": {"assay": "Concentration in mouse gastric mucin after a single oral dose", "format": "in vivo", "conditions": "for concentration at 0.25 h / concentration at 0.5 h / concentration at 1 h / concentration at 2 h / concentration at 4 h / concentration at 8 h / concentration at 12 h / concentration at 24 h: C57/BL6, mouse, gastric mucin, po, 10 mg/kg, mouse; for concentration at 0.25 h: 0.25 h after single dose 10 mg/kg PO; for concentration at 0.5 h: 0.50 h after single dose 10 mg/kg PO; for concentration at 1 h: 1.00 h after single dose 10 mg/kg PO; for concentration at 2 h: 2.00 h after single dose 10 mg/kg PO; for concentration at 4 h: 4.00 h after single dose 10 mg/kg PO; for concentration at 8 h: 8.00 h after single dose 10 mg/kg PO; for concentration at 12 h: 12.0 h after single dose 10 mg/kg PO; for concentration at 24 h: 24.0 h after single dose 10 mg/kg PO", "experimental": "(a) Oral Dosing of Mice with 10 mg/kg Hexyl-SerMe-Immucillin A: Female C57/BL6 mice ranging from 5-6 weeks in age and 18-22 grams in weight (Harlan Laboratories) were dosed by oral gavage with of Hexyl-SerMe-Immucillin A (0.4 mL of a 0.5 mg/mL solution in water for injection).\n(b) Mucin Sampling: Mice (3 mice/time point) were euthanized via CO2 inhalation at 0.25, 0.5, 1, 2, 4, 8, 12 and 24 h, then the mucin layer was scraped from the longitudinally dissected stomach using a glass slide, collected and weighed.\n(c) Preparation of Gastric Mucin Homogenates: Approximately 30 mg of mouse mucin was weighted into a 2 mL homogenizer tube (prefilled with 3.0 mm i.d. zirconium beads) and mixed with 0.2 mL PBS buffer. This was homogenized for 3 min at 4,000 rpm in a Beadbug D1030 (Benchmark Scientific) homogenizer.\n(d) Extraction of Gastric Mucin Homogenates: Samples of mucin homogenate (50 μL) and of internal standard (see below) in water (10 μL) were treated with trichloroacetic acid (30% w/v, 30 μL), diluted with water (160 μL), vortexed for 10 sec and sonicated for 10 min, then centrifuged at 14,500 rpm for 5 min. A sample of the supernatant (160 μL) was transferred into autosampler vials. The internal standard was Butylthio-DADMe-Immucillin-H at 5.0 and 20.0 μg/mL.\n(f) HPLC-MS-MS Analysis: Aliquots of supernatant (10 μL) were injected for analysis on Surveyor HPLC system (Thermo) fitted with an ACE 3 C18 Column (50×3 mm, 3 μm particles), with gradient elution at 30° C. with 400 μL/min mobile phase comprised of mixtures of 0.1% trifluoroacetic acid in water (A) and methanol (B) as follows: 0-5 min, A:B 9:1; 5-6.1 min, A:B 1:9; 6.1-10 min A:B 9:1. Hexyl-SerMe-Immucillin A eluted at 4.41±0.003 min. Detection was ESI MS/MS using a LCQ Deca (Thermo) in selected-reaction monitoring (SRM) positive mode using the MS/MS event m/z 292.2→147.2 and ion spray voltage of 4.5 kV."}, "[2]": {"tested_on": "H. pylori UNT189-1 (ATCC43504)", "assay": "MIC by agar dilution (MHIIb agar), strain UNT189-1", "format": "cell-based", "conditions": "Helicobacter pylori, 72 h", "experimental": "(§1) (a) Sample Plate Preparation: Aliquots of a 2-fold serial dilution of Hexyl-SerMe-Immucillin A (from 62.5 μg/mL-6.25 μg/mL in DMSO, 0.02 mL) were mixed into separate 2 mL molten MHIIb agar, and poured into separate wells on each well of a 12-well plate, allowed to set for 20-30 minutes and dry in a biosafety cabinet for 10 minutes prior to Inoculation.\n(§2) (b) Inoculation: Frozen inoculate stock of H. pylori strains UNT020-1 (Sydney Strain SS1) and UNT189-1 (ATCC43504) was separately streaked onto Columbia+5% sheep blood agar and microaerophilically incubated for 72 h at 37° C. The plate cultures of the H. pylori strains were then harvested in 0.9% sterile saline solution and the OD at 530 nm of the suspension was determined. The OD of each suspension was adjusted to 1.5-2.0 by dilution into 0.9% sterile saline. The UNT020-1 suspension was further diluted 2:5, but the UNT189-1 suspension was not further diluted, and these were used to inoculate the agar plates. Samples of the suspensions (3 μL) were spotted onto the MHIIb agar wells in the 12-well plate. The CFU/mL of each inoculum was confirmed by generating a 10-fold serial dilution of each inoculum in 0.9% sterile saline and spotting 8 μL of each dilution onto Columbia+5% sheep blood agar plates. After allowing the spots to dry for 10 min, the plates were placed into a microaerophilic chamber and incubated at 37° C. for 72 h."}, "[3]": {"tested_on": "H. pylori UNT020-1 (Sydney Strain SS1)", "assay": "MIC by agar dilution (MHIIb agar), strain UNT020-1", "format": "cell-based", "conditions": "Helicobacter pylori, 72 h", "experimental": "as §1, §2"}, "[4]": {"conditions": "female, read-out: concentration in gastric mucin, Animal-1"}, "[5]": {"conditions": "female, read-out: concentration in gastric mucin, Animal-2"}, "[6]": {"conditions": "female, read-out: concentration in gastric mucin, Animal-3"}, "[7]": {"conditions": "female, read-out: concentration in gastric mucin, Mean"}},
  "note": "Where two headings read alike, the source gives them in different places.",
  "data": [
    {"smiles": "CCCCCC[C@@H](CO)NCc1c[nH]c2c(N)ncnc12", "note": "[Hexyl-SerMe-Immucillin A, (2S)-2-[({4-Amino-5H-pyrrolo[3,2-d]pyrimidin-7-yl}methyl)amino]octan-1-ol]", "values": [
      {"measurement": "concentration at 0.25 h", "setting": "[1]; [4]", "value": 60400, "unit": "ng/g"},
      {"measurement": "concentration at 0.25 h", "setting": "[1]; [5]", "value": 64400, "unit": "ng/g"},
      {"measurement": "concentration at 0.25 h", "setting": "[1]; [6]", "value": 45900, "unit": "ng/g"},
      {"measurement": "concentration at 0.25 h", "setting": "[1]; [7]", "value": 56900, "unit": "ng/g"},
      {"measurement": "concentration at 0.5 h", "setting": "[1]; [4]", "value": 46200, "unit": "ng/g"},
      {"measurement": "concentration at 0.5 h", "setting": "[1]; [5]", "value": 90200, "unit": "ng/g"},
      {"measurement": "concentration at 0.5 h", "setting": "[1]; [6]", "value": 60200, "unit": "ng/g"},
      {"measurement": "concentration at 0.5 h", "setting": "[1]; [7]", "value": 65500, "unit": "ng/g"},
      {"measurement": "concentration at 1 h", "setting": "[1]; [4]", "value": 20400, "unit": "ng/g"},
      {"measurement": "concentration at 1 h", "setting": "[1]; [5]", "value": 12200, "unit": "ng/g"},
      {"measurement": "concentration at 1 h", "setting": "[1]; [6]", "value": 12000, "unit": "ng/g"},
      {"measurement": "concentration at 1 h", "setting": "[1]; [7]", "value": 14900, "unit": "ng/g"},
      {"measurement": "concentration at 2 h", "setting": "[1]; [4]", "value": 2020, "unit": "ng/g"},
      {"measurement": "concentration at 2 h", "setting": "[1]; [5]", "value": 1080, "unit": "ng/g"},
      {"measurement": "concentration at 2 h", "setting": "[1]; [6]", "value": 16200, "unit": "ng/g"},
      {"measurement": "concentration at 2 h", "setting": "[1]; [7]", "value": 6440, "unit": "ng/g"},
      {"measurement": "concentration at 4 h", "setting": "[1]; [4]", "value": 670, "unit": "ng/g"},
      {"measurement": "concentration at 4 h", "setting": "[1]; [5]", "value": 3740, "unit": "ng/g"},
      {"measurement": "concentration at 4 h", "setting": "[1]; [6]", "value": 910, "unit": "ng/g"},
      {"measurement": "concentration at 4 h", "setting": "[1]; [7]", "value": 1770, "unit": "ng/g"},
      {"measurement": "concentration at 8 h", "setting": "[1]; [4]", "value": 650, "unit": "ng/g"},
      {"measurement": "concentration at 8 h", "setting": "[1]; [5]", "value": 1620, "unit": "ng/g"},
      {"measurement": "concentration at 8 h", "setting": "[1]; [6]", "value": 530, "unit": "ng/g"},
      {"measurement": "concentration at 8 h", "setting": "[1]; [7]", "value": 930, "unit": "ng/g"},
      {"measurement": "concentration at 12 h", "setting": "[1]; [4]", "value": 960, "unit": "ng/g"},
      {"measurement": "concentration at 12 h", "setting": "[1]; [5]", "value": 950, "unit": "ng/g"},
      {"measurement": "concentration at 12 h", "setting": "[1]; [6]", "value": 330, "unit": "ng/g"},
      {"measurement": "concentration at 12 h", "setting": "[1]; [7]", "value": 740, "unit": "ng/g"},
      {"measurement": "concentration at 24 h", "setting": "[1]; [4]", "value": 540, "unit": "ng/g"},
      {"measurement": "concentration at 24 h", "setting": "[1]; [5]", "value": 390, "unit": "ng/g"},
      {"measurement": "concentration at 24 h", "setting": "[1]; [6]", "value": 300, "unit": "ng/g"},
      {"measurement": "concentration at 24 h", "setting": "[1]; [7]", "value": 410, "unit": "ng/g"},
      {"measurement": "Cmax", "setting": "[1]; female, C57/BL6, mouse gastric mucin, 10 mg/kg oral gavage", "value": 65500, "unit": "ng/g"},
      {"measurement": "half-life", "setting": "[1]; female, C57/BL6, mouse gastric mucin, 10 mg/kg oral gavage, read-out: terminal half-life (converted)", "value": 2.72, "unit": "h"},
      {"measurement": "total exposure [AUC(0-inf)]", "setting": "[1]; mouse gastric mucin, 10 mg/kg oral gavage", "value": 78.6, "unit": "µg·h/g"},
      {"measurement": "MIC", "setting": "[2]", "value": 1.9, "unit": "ng/mL"},
      {"measurement": "MIC", "setting": "[3]", "value": 1.9, "unit": "ng/mL"}
    ]}
  ]
}
